Source: US4863902A, “Treatment of cancer” (Wakunaga Seiyaku Kabushiki Kaisha, priority 1985, dated 1989)

Experiments:
[1] = test system: Colon adenocarcinoma 38 (mouse colon adenocarcinoma); test: Tumor weight of transplanted Colon adenocarcinoma 38 in C57BL/6 mice; format: in vivo; conditions: for antitumor effect of (a) + (b) (quantity not headed; method of Experimental Example 4): Table 21; for tumor growth inhibiting effect, same experiment as Experimental Example 19: used in place of 5-FU in combination with FGF
Experimental: Colon adenocarcinoma 38 (mouse colon adenocarcinoma) was minced into pieces and about 0.1 to 0.2 ml thereof was transplanted subcutaneously on the right side of mouse abdomen by a cell transplanting needle (trocker). Eleven days after transplantation, the size of tumor, namely longer diameter (a mm) and shorter diameter (b mm) of tumor were measured and the tumor weight was calculated according to the formula shown below [Instruction 14 (NCI) 1980].
Tumor weight (mg)=ab^2 /2
In the Table, days indicate the experimental days with the day of compound administration being as the day 1, and the tumor weight immediately before administration of compound of day 1 is made 100. The respective values show the average value ± standard error of case numbers of 10 to 20, in the Table, the marks of (*), * and *** indicate the statistical significance difference of the combined administration group relative to the 5-FU single administration group (the definition of P is as defined above).

[2] = test system: mouse ovarian tumor M5076; test: Tumor weight of solid tumor of mouse ovarian tumor in BDF1 mice; format: in vivo; conditions: for Tumor weight (day 1 = 100): Table 9, cisplatin 5 mg/Kg, hEGF, [Leu^21 ]-hEGF or hEGF-II 100 μg/Kg subcutaneous, average ± standard error
Experimental: BDF1 male mice were employed. The feeding conditions were the same as in Experimental Example 1.
Mouse ovarian tumor M5076 was transplanted subcutaneously at the axialla of mouse in 1-2×10^6 cells per mouse. 12 days after transplantation, the size of tumor was measured according to the same method as in Experimental Example 1 (Colon 26) and the tumor weight was calculated.
The grouping operation on initiation of Experiments was conducted in the same manner as in Experimental Example 1. The compounds were administered in the same manner as in Experimental Example 9.
The experiment was carried out in the samme manner as in Experimental Examples 1, 7 and as in Experimental Example 17 for others.

[3] = Table 12, day 4 after compound administration, weight before administration = 100, Tegafur 400, 5-FU 150, Mitomycin-C 5, Cisplatin 5 mg/Kg, hIGF-II 50 μg/Kg subcutaneous, average ± standard error of 8-10 mice
[4] = Table 13, same method as Experimental Example 20 (day 4), Tegafur 400, Mitomycin-C 5, Adriamycin 10, Cisplatin 5 mg/Kg, Insulin 50 m μg/Kg subcutaneous
[5] = Table 14, hTGFα 100 μg/10 ml/Kg with 5-FU, Tegafur, Mitomycin-C, Adriamycin or Cisplatin, as described for Table 12
[6] = Table 15, day 4 after compound administration, hTGFβ and hEGF 100 μg/Kg with each compound having antitumor action
[7] = (a) Adriamycin, Mixed injection
[8] = (a) Adriamycin, Separate injection
[9] = (a) Cisplatin, Separate injection
[10] = (a) Tegafur, Separate injection

Row | Compound | Tumor weight ratio(%) [1, 3] [%] | Tumor weight ratio(%) [1, 4] [%] | Tumor weight ratio(%) [1, 5] [%] | Tumor weight ratio(%) [1, 6] [%] | antitumor effect of (a) + (b) (quantity not headed; method of Experimental Example 4) [1, 7] | antitumor effect of (a) + (b) (quantity not headed; method of Experimental Example 4) [1, 8] | antitumor effect of (a) + (b) (quantity not headed; method of Experimental Example 4) ([1]; (a) Cisplatin, Mixed injection) | antitumor effect of (a) + (b) (quantity not headed; method of Experimental Example 4) [1, 9] | antitumor effect of (a) + (b) (quantity not headed; method of Experimental Example 4) ([1]; (a) Tegafur, Mixed injection) | antitumor effect of (a) + (b) (quantity not headed; method of Experimental Example 4) [1, 10] | tumor growth inhibiting effect, same experiment as Experimental Example 19 [1] | further results
1 | O=c1[nH]c(=O)n(C2CCCO2)cc1F (stereo not shown) [Tegafur, 1-(2-tetrahydrofuryl)-5-fluorouracil] | 95.2 ± 15.4 | 95.2 ± 15.4 | 95.2 ± 15.4 | 118.0 ± 9.8 | – | – | – | – | – | – | – | Tumor weight (day 1 = 100) ([1]; Table 6, day 2, Tegafur 400 mg/Kg, hEGF 100 μg/Kg subcutaneous on day 1 and day 4, average ± standard error of 7 mice): 89.0 ± 10.5; Tumor weight (day 1 = 100) ([1]; Table 6, day 3, Tegafur 400 mg/Kg, hEGF 100 μg/Kg subcutaneous on day 1 and day 4, average ± standard error of 7 mice): 102.1 ± 13.5; Tumor weight (day 1 = 100) ([1]; Table 6, day 4, Tegafur 400 mg/Kg, hEGF 100 μg/Kg subcutaneous on day 1 and day 4, average ± standard error of 7 mice): 105.5 ± 18.4; Tumor weight (day 1 = 100) ([1]; Table 6, day 5, Tegafur 400 mg/Kg, hEGF 100 μg/Kg subcutaneous on day 1 and day 4, average ± standard error of 7 mice): 104.2 ± 22.6; Tumor weight (day 1 = 100) ([1]; Table 6, day 6, Tegafur 400 mg/Kg, hEGF 100 μg/Kg subcutaneous on day 1 and day 4, average ± standard error of 7 mice): 94.5 ± 16.9; Tumor weight (day 1 = 100) ([1]; Table 6, day 7, Tegafur 400 mg/Kg, hEGF 100 μg/Kg subcutaneous on day 1 and day 4, average ± standard error of 7 mice): 131.4 ± 23.3; Tumor weight (day 1 = 100) ([1]; Table 6, day 8, Tegafur 400 mg/Kg, hEGF 100 μg/Kg subcutaneous on day 1 and day 4, average ± standard error of 7 mice): 143.7 ± 20.6; Tumor weight ratio(%) ([1]; Table 16, day 4 after administration, Tegafur in place of 5-FU, FGF as in Experimental Example 19): 103.1 ± 13.1%; Tumor weight ratio(%) ([1]; Table 17, day 4 after compound administration, Tegafur 400 mg/Kg, hEGF, hEGF-II, [Leu^21 ]-hEGF each 100 μg/Kg, RA 30 mg/Kg subcutaneous): 90.6 ± 11.5%
2 | [Leu^21 ]-hEGF: derivative of hEGF with the 21st methionine from the N-terminal substituted with leucine (NSDSECPLSHDGYCLHDGVCLYIEALDKYACNCVVGYIGERCQYRDLKWWELR; not fully specified; Epidermal growth factor; UniProt P01133 971-1023, looked up, variant M21L) | – | – | – | – | 99.6 | 97.8 | 90.4 | 100.1 | 48.1 | 50.3 | – | tumor cell growth inhibition, same experiment as Experimental Example 4 ([1]; used in place of hEGF in combination with 5-FU): the same results; tumor cell growth inhibition, same experiment as Experimental Example 14 ([1]; used in place of hEGF in combination with Tegafur): the same results; antitumor action potentiating effect, same experiment as Experimental Example 9 ([1]; used in place of hEGF in combination with cisplatin): the same results; tumor cell growth inhibiting effect, same experiment as Experimental Example 15 ([1]; used in place of hEGF in combination with cyclophosphamide): the same results; antitumor effect potentiation, same experiment as Experimental Example 17 ([2]; used together with mytomycin C in place of cisplatin): the same results
3 | Insulin | – | – | – | – | 110.2 | 121.1 | 105.6 | 110.3 | 58.9 | 48.1 | – | –
4 | CO[C@@]12[C@H](COC(N)=O)C3=C(C(=O)C(C)=C(N)C3=O)N1C[C@@H]1N[C@@H]12 [MMC, mitomycin C] | 95.8 ± 5.5 | 95.8 ± 5.5 | 95.8 ± 5.5 | 101.1 ± 8.3 | – | – | – | – | – | – | the same results | Tumor weight (day 1 = 100) ([1]; Table 8, day 2, MMC 5 mg/Kg, hEGF, hEGF-II or [Leu^21 ]-hEGF 100 μg/Kg subcutaneous on day 1 and day 5, average ± standard error of 6 mice): 130.8 ± 8.5; Tumor weight (day 1 = 100) ([1]; Table 8, day 3, MMC 5 mg/Kg, hEGF, hEGF-II or [Leu^21 ]-hEGF 100 μg/Kg subcutaneous on day 1 and day 5, average ± standard error of 6 mice): 106.1 ± 9.4; Tumor weight (day 1 = 100) ([1]; Table 8, day 4, MMC 5 mg/Kg, hEGF, hEGF-II or [Leu^21 ]-hEGF 100 μg/Kg subcutaneous on day 1 and day 5, average ± standard error of 6 mice): 95.8 ± 5.5; Tumor weight (day 1 = 100) ([1]; Table 8, day 5, MMC 5 mg/Kg, hEGF, hEGF-II or [Leu^21 ]-hEGF 100 μg/Kg subcutaneous on day 1 and day 5, average ± standard error of 6 mice): 98.6 ± 3.9; Tumor weight (day 1 = 100) ([1]; Table 8, day 6, MMC 5 mg/Kg, hEGF, hEGF-II or [Leu^21 ]-hEGF 100 μg/Kg subcutaneous on day 1 and day 5, average ± standard error of 6 mice): 160.7 ± 10.9; Tumor weight (day 1 = 100) ([1]; Table 8, day 7, MMC 5 mg/Kg, hEGF, hEGF-II or [Leu^21 ]-hEGF 100 μg/Kg subcutaneous on day 1 and day 5, average ± standard error of 6 mice): 150.8 ± 15.9; Tumor weight (day 1 = 100) ([1]; Table 8, day 8, MMC 5 mg/Kg, hEGF, hEGF-II or [Leu^21 ]-hEGF 100 μg/Kg subcutaneous on day 1 and day 5, average ± standard error of 6 mice): 263.6 ± 30.8; Tumor weight (day 1 = 100) ([1]; Table 8, day 9, MMC 5 mg/Kg, hEGF, hEGF-II or [Leu^21 ]-hEGF 100 μg/Kg subcutaneous on day 1 and day 5, average ± standard error of 6 mice): 308.7 ± 54.0
5 | TGFα: human transforming growth factor α | – | – | – | – | 98.4 | 92.6 | 80.4 | 80.1 | 34.3 | 40.6 | – | –
6 | N.N.[Cl][Pt][Cl] [Cisplatin, cisplatin] | 145.6 ± 9.1 | 145.6 ± 9.1 | 145.6 ± 9.1 | 139.8 ± 9.9 | – | – | – | – | – | – | the same results | Tumor weight (day 1 = 100) ([2]; day 2): 126.4 ± 9.0; Tumor weight (day 1 = 100) ([2]; day 3): 125.49 ± 8.3; Tumor weight (day 1 = 100) ([2]; day 4): 136.9 ± 5.2; Tumor weight (day 1 = 100) ([2]; day 5): 143.6 ± 14.5; Tumor weight (day 1 = 100) ([2]; day 6): 192.0 ± 20.6
7 | O=P1(N(CCCl)CCCl)NCCCO1 (stereo not shown) [Cyclophosphamide, cyclophosphamide] | – | – | – | 90.6 ± 7.6 | – | – | – | – | – | – | the same results | Tumor weight (day 1 = 100) ([1]; Table 7, day 2, cyclophosphamide 200 mg/Kg, hEGF 100 μg/Kg subcutaneous on day 1 and day 3, average ± standard error of 8 mice): 145.2 ± 18.2; Tumor weight (day 1 = 100) ([1]; Table 7, day 3, cyclophosphamide 200 mg/Kg, hEGF 100 μg/Kg subcutaneous on day 1 and day 3, average ± standard error of 8 mice): 147.6 ± 13.7; Tumor weight (day 1 = 100) ([1]; Table 7, day 4, cyclophosphamide 200 mg/Kg, hEGF 100 μg/Kg subcutaneous on day 1 and day 3, average ± standard error of 8 mice): 102.4 ± 8.6; Tumor weight (day 1 = 100) ([1]; Table 7, day 5, cyclophosphamide 200 mg/Kg, hEGF 100 μg/Kg subcutaneous on day 1 and day 3, average ± standard error of 8 mice): 92.2 ± 5.1; Tumor weight (day 1 = 100) ([1]; Table 7, day 6, cyclophosphamide 200 mg/Kg, hEGF 100 μg/Kg subcutaneous on day 1 and day 3, average ± standard error of 8 mice): 108.5 ± 19.6; Tumor weight (day 1 = 100) ([1]; Table 7, day 7, cyclophosphamide 200 mg/Kg, hEGF 100 μg/Kg subcutaneous on day 1 and day 3, average ± standard error of 8 mice): 110.9 ± 21.3
